Test results reported in patent publication US10253085B2, “CD31 peptides for the treatment of thrombotic or autoimmune disorders” (INSERM (INSTITUT NATIONAL DE LA SANTE ET DE LA RECHERCHE …, priority 2008, dated 2019).
“Also recorded” adds a separate entry of the source.

Experiments:
T-cell activation = test: In vitro inhibition of T-cell activation (summary statements); format: cell-based
[1] = system: spleen cells from C57Bl/6 (CD31^+/+) mice; test: Proliferation in response to TCR stimulation, CD31+/+ spleen cells; format: cell-based, mouse; details: peptide 25, 50, 100 μM; scramble peptide 100 μM
Procedure: CD8^+ T cell-mediated cytolytic activity against allogeneic mouse aortic smooth muscle cells and measurement of macrophage gelatinase (MMP-2/9) activity were performed as previously described for human cells in Caligiuri et al. (2006 Arterioscler Thromb Vasc Biol 26:618-623) using kits and reagents from Invitrogen. Briefly, primary cultures of FVB/N mouse aorta smooth muscle cells were labelled with the lipophylic tracer DIO (green) and co-cultured for 3 hours with CD8+ T cell-enriched spleen cells from C57Bl/6 mice (n=3 scramble peptide and n=3 peptide 551-574, 50 μM). Cytolysis was evaluated by intracellular accumulation of propidium iodide (PI). Cells were analysed by flow cytometry and the % of cytolysis was calculated by expressing the number of dead (PI+) cells among the target (DIO+) cells. Intracellular MMP-2/9 (gelatinase) activity was measured by flow cytometry in 7-day bone-marrow derived macrophages from C57Bl/6 mice (n=3 scramble peptide and n=3 peptide 551-574, 50 μM) three hours after the incorporation of OregonGreen® gelatine (MFI). T-cell proliferation was performed using either human peripheral blood mononuclear cells of spleen cells from C57Bl/6 (CD31^+/+) and CD31^−/− mice (Charles River France) as previously described (Caligiuri et al. 2005 Arterioscler Thromb Vasc Biol 25:1659-1664). Briefly, cells were plated in triplicates at 0.2×10^6 cells/well in a U bottom 96-well plate in complete medium (RPMI 1640, 1% pyruvate, 1% glutamine, 1% penicillin-streptomicyne-fungizone, 10% decomplemented fetal calf serum, all from Invitrogen) containing 1 μg/ml anti-mouse CD3/CD28 or 5 μg/ml anti-human CD3 antibodies (BD) as appropriate. CD31 (551-574) and scramble peptide at 25, 50 and 100 μM final concentration were deposited in the wells just before cell plating. Plated cells were cultured for 72 hours in 5% CO2 at 37° C. (^3H) thymidine (0.5 μCi/well) was added for the last 16 hours and proliferation evaluated using a Tomtec harvester and analysis on a Wallac micro beta counter. Data are expressed as mean±SEM of cpm in triplicates.

[2] = system: BALB/c mice primed with TNCB; test: Delayed type hypersensitivity (DTH) suppression model; format: in vivo, mouse; details: single subcutaneous administration; peptide 10, 50, 100 μM; scramble 100 μM
Procedure: Delayed type hypersensitivity (DTH) suppression was evaluated as described in the “Current Protocols in Immunology (2001) 4.0.1-4.0.2 Unit 4.2”. Briefly, TNCB (2-chloro-1,3,5-trinitrobenzene, Fluka #79874) was dissolved in acetone/olive oil (1:1 v/v) at a concentration of 10 mg/ml. BALB/c mice (n=6/group) were primed by painting the shaved regions of the abdomen a with a total 0.2 ml of the preparation (n=6/group). The experiment included 3 groups for peptide 551-574 (10, 50, 100 μM) and 1 group treated with scramble peptide at 100 μM). Five days after priming, 10 μl of the TNCB-solvent mixture was painted on the right pinna, 30 minutes after subcutaneous (interscapolar) administration of the peptide 551-574 or the scramble peptide. Ear thickness increases were calculated by subtracting the thickness of the right and the left pinna of each mouse (right-left/left×100), measured at 24 h with a dial caliper (“Pocotest”, Kroeplin Längenmesstechnick). The measure was performed 5 times on each ear and averaged for further analysis. The immunosuppressive effect of the peptide was calculated as % suppression=(1−ΔTE/ΔTS)×100, where ΔT=(ear thickness 24 hr after elicitation)−(baseline ear thickness), […]. Data are expressed as mean±SEM.

[3] = system: C57BL/6J mice immunized with MOG35-55 peptide; test: Experimental Autoimmune Encephalomyelitis (EAE) model; format: in vivo, mouse
Procedure: Twelve-week old female C57BL/6J mice were immunized with 300 μg of MOG35-55 peptide emulsified in Complete Freund's Adjuvant 1:1 by volume containing 800 μg of nonviable desiccated Mycobacterium tuberculosis H37RA. A final volume of 200 μl of the emulsion was injected subcutaneously at 4 sites (50 μl/site) over the flanks. In addition, 300 ng of Pertussis toxin was injected intravenously (retro-orbital plexus) on the same day and 2 days later. Clinical signs of EAE ware assessed daily by the following scoring system: 0, no signs; 1, hindlimb weakness; 2, hindlimb weakness and tail paralysis; 3, hindlimb and tail paralysis; 4, hindlimb and tail paralysis and forelimb weakness; 5, moribund state; and 6, death. The peak (waxing phase) occured around day 21. In this C57BL/6J mouse model, there was no waning phase as assessed in our laboratory up to day 41.
The experiment was carried out with ten mice per group. The mice of each group were treating with either of: • PBS; • PepReg (SEQ ID NO: 3); or • PepScra (SEQ ID NO: 14).
The dosing was of 50 μg of peptide per mice and per day (i.e. about 2 mg/Kg per day). The peptide was administered by a subcutaneous injection.

[4] = system: CD4+ cells from C57Bl6 mice; test: CD4+ T cell activation, early activation marker CD69 by flow cytometry; format: cell-based, mouse; details: 18 hours culture
Procedure: Alternatively, the T-cell proliferation assay may comprise comparing expression levels of the early activation marker CD69 in T-cells cultured either in the presence or in the absence of the compound to be tested. This assay may for example be performed as follows: • providing purified CD4+ cells (e.g. purified from C57B16 mice); • stimulating said CD4+ cells by addition of anti-CD3 purified antibodies and bone marrow derived dendritic cells; • culturing the cells for about 18 hours; and • analyzing said cells for the expression of the early activation marker CD69, e.g. by flow cytometry; and • comparing CD69 expression in the presence of the compound to be tested.
The immunosuppressive properties of PepReg (10aa) vs the 23 aa parent peptide were evaluated in vitro. Negatively purified CD4+ cells from C57Bl6 mice were stimulated by soluble anti-CD3 purified antibodies and bone marrow derived dendritic cells. Cells from triplicate wells were analyzed for the expression of the early activation marker CD69 after 18 hours culture in complete RPMI medium supplemented with 10% fetal calf serum.

T cell proliferation = test: Suppression of T cell proliferation by [H3] thymidin incorporation, long culture; format: cell-based, mouse; details: culture at 37° C. in 10% serum
[5] = associated with disease protection

LAPWKK (mouse or human-derived CD31 peptide) [SEQ ID NO: 2]
inhibition of T-cell activation (T-cell activation): capable of inhibiting T-cell activation

NH2 - SMPAVRSRFSATSLVTLKSRWPK -COOH (H-SMPAVRSRFSATSLVTLKSRWPK-OH) [scramble peptide, scramble peptide used as control for the 23-mer, reference compound]
proliferation of CD31+/+ spleen cells in response to TCR stimulation [1]: No effect; also recorded: ineffective | suppression of distal recall of a hapten-elicited specific immune response (ear thickness) [2]: ineffective

VRVFLAPWKK (mouse-derived CD31 peptide) [PepReg, ten COOH terminal amino acids of mouse CD31 peptide]
infiltration of IL17+ and IFNg+ T helper CD4+ cells in the central nervous system [3, 5]: reduced infiltration | proportion of regulatory CD25+/foxP3 CD4+ cells in the central nervous system [3, 5]: increased proportion | clinical score of EAE activity (paralysis level) ([3]; plateau phase (Days 21 through to 35), 50 μg per mice per day subcutaneous): reducing disease extension | clinical score of EAE activity (paralysis level) ([3]; waxing phase (Day 15), 50 μg per mice per day subcutaneous): arresting disease development | inhibition of T-cell activation (T-cell activation): capable of inhibiting T-cell activation | dose at which suppression of CD69 expression was observed [4]: 50 µg/mL | suppression of T cell activation (percentage of CD4 cells expressing CD69) ([4]; anti-CD3 and dendritic cells): at least as efficient as the 23aa peptide | persistence of suppression of T cell proliferation (T cell proliferation): up to 7 days

scrambled peptide: scramble peptide of SEQ ID NO: 14 used as control for PepReg; sequence not printed (WPKLRKFVAV; scramble peptide) [reference compound]
beneficial effect in EAE model ([3]; 50 μg per mice per day subcutaneous): beneficial, although less than PepReg
